Data as given in patent publication US6828338B2, “Substituted polycyclic aryl and heteroaryl pyridines useful for selective inhibition of the coagulation cascade” (Pharmacia Corporation, priority 2000, dated 2004).

Biological target: T1, Human factor Xa (Homo sapiens, UniProt P00742)
T1 construct: leads from XII to XIIa to XIa to IXa and to the conversion of X to Xa; purchased Enzyme Research Laboratories, South Bend Ind
Assay: Xa Assay
Format: biochemical
Protocol: Human factor Xa (0.3 nM) and 0.15 mM N-a-Benzyloxycarbonyl-D-arginyl-L-glycyl-L-arginine-p-nitroaniline-dihydrochloride (S-2765) are added to a 96-well assay plate containing either inhibitor or buffer (50 mM Tris-HCl, pH 8.0, 100 mM NaCl, 0.1% BSA). The reaction, in a final volume of 100 ul is measured immediately at 405 nm to determine background absorbance. The plate is incubated at room temperature for 60 min, at which time the rate of hydrolysis of the substrate is measured by monitoring the reaction at 405 nm for the release of p-nitroaniline. Percent inhibition of Xa activity is calculated from OD405 nm value from the experimental and control sample.
Recombinant soluble TF, consisting of amino acids 1-219 of the mature protein sequence was expressed in E. coli and purified using a Mono Q Sepharose FPLC. Recombinant human VIIa was purchased from American Diagnostica, Greenwich Conn. and chromogenic substrate N-Methylsulfonyl-D-phe-gly-arg-p-nitroaniline was prepared by American Peptide Company, Inc., Sunnyvale, Calif. Factor Xa was obtained from Enzyme Research Laboratories, South Bend Ind., thrombin from Calbiochem, La Jolla, Calif., and trypsin and L-BAPNA from Sigma, St. Louis Mo. The chromogenic substrates S-2765 and S-2238 were purchased from Chromogenix, Sweden.

T1 sequence (P00742 235-488 limits assumed): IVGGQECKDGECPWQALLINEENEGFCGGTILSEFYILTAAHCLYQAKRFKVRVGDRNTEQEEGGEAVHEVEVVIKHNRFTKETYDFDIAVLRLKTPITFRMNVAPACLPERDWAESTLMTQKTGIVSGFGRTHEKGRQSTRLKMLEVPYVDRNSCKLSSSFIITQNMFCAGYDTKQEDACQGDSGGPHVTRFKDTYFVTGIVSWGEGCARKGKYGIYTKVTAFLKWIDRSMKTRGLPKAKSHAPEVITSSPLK
T1 sequence (P00742 41-179 limits assumed): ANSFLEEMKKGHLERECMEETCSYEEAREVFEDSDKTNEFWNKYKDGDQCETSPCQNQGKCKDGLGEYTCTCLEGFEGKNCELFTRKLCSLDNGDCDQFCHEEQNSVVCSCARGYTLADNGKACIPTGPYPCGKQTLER

Row | IC50 [µM] | SMILES
1 | > 100 | CC(C)Nc1ccc(-c2cc(N)cc(N)c2)c(CC(=O)NCc2ccc(C(=N)N)cc2)[n+]1[O-] [Example 7]
2 | > 100 | CC(C)Nc1ccc(/C=C/c2ccccc2)c(CC(=O)NCc2ccc(C(=N)N)cc2)[n+]1[O-] [Example 12]
